Residues, ends and D or L forms follow the SMILES beside them.
target: Nucleic Acid; experiment: Dissociation constant with HIV-1 trans activation responsive element of mRNA was determined; assay type: nucleic-acid assay, Human immunodeficiency virus 1; settings: not given

SMILES | Kd
C[C@H](N)C(=O)N[C@@H](C)C(=O)N[C@@H](C)C(=O)N[C@@H](C)C(=O)N[C@@H](C)C(=O)N[C@@H](CCCN=C(N)N)C(=O)N[C@@H](CCCN=C(N)N)C(=O)N[C@@H](C)C(=O)N[C@@H](CCCN=C(N)N)C(=O)N[C@@H](C)C(=O)N[C@@H](C)C(=O)N[C@@H](C)C(=O)N[C@@H](C)C(=O)N[C@@H](C)C(=O)N[C@@H](C)C(=O)N[C@@H](C)C(=O)O (H-AAAAARRARAAAAAAA-OH) | No binding
C[C@H](N)C(=O)N[C@@H](C)C(=O)N[C@@H](C)C(=O)N[C@@H](C)C(=O)N[C@@H](C)C(=O)N[C@@H](CCCN=C(N)N)C(=O)N[C@@H](CCCN=C(N)N)C(=O)N[C@@H](C)C(=O)N[C@@H](CCCN=C(N)N)C(=O)N[C@@H](CCCN=C(N)N)C(=O)N[C@@H](C)C(=O)N[C@@H](C)C(=O)N[C@@H](C)C(=O)N[C@@H](C)C(=O)N[C@@H](C)C(=O)N[C@@H](C)C(=O)O (H-AAAAARRARRAAAAAA-OH) | No binding

same assay, conditions: read-out: Kd

SMILES | Kd [µM]
C[C@H](N)C(=O)N[C@@H](C)C(=O)N[C@@H](C)C(=O)N[C@@H](CCCN=C(N)N)C(=O)N[C@@H](C)C(=O)N[C@@H](C)C(=O)N[C@@H](CCCN=C(N)N)C(=O)N[C@@H](CCCN=C(N)N)C(=O)N[C@@H](C)C(=O)N[C@@H](CCCN=C(N)N)C(=O)N[C@@H](CCCN=C(N)N)C(=O)N[C@@H](CCCN=C(N)N)C(=O)N[C@@H](C)C(=O)N[C@@H](C)C(=O)N[C@@H](C)C(=O)O (H-AAARAARRARRRAAA-OH) | 2.9
C[C@H](N)C(=O)N[C@@H](C)C(=O)N[C@@H](C)C(=O)N[C@@H](C)C(=O)N[C@@H](C)C(=O)N[C@@H](CCCN=C(N)N)C(=O)N[C@@H](CCCN=C(N)N)C(=O)N[C@@H](CCCN=C(N)N)C(=O)N[C@@H](CCCN=C(N)N)C(=O)N[C@@H](CCCN=C(N)N)C(=O)N[C@@H](C)C(=O)N[C@@H](C)C(=O)N[C@@H](C)C(=O)N[C@@H](C)C(=O)N[C@@H](C)C(=O)N[C@@H](C)C(=O)O (H-AAAAARRRRRAAAAAA-OH) | 66
C[C@H](N)C(=O)N[C@@H](C)C(=O)N[C@@H](C)C(=O)N[C@@H](C)C(=O)N[C@@H](C)C(=O)N[C@@H](CCCN=C(N)N)C(=O)N[C@@H](CCCN=C(N)N)C(=O)N[C@@H](C)C(=O)N[C@@H](CCCN=C(N)N)C(=O)N[C@@H](CCCN=C(N)N)C(=O)N[C@@H](CCCN=C(N)N)C(=O)N[C@@H](C)C(=O)N[C@@H](C)C(=O)N[C@@H](C)C(=O)N[C@@H](C)C(=O)N[C@@H](C)C(=O)O (H-AAAAARRARRRAAAAA-OH) | 18
C[C@H](N)C(=O)N[C@@H](C)C(=O)N[C@@H](C)C(=O)N[C@@H](CCCN=C(N)N)C(=O)N[C@@H](CCCCN)C(=O)N[C@@H](CCCCN)C(=O)N[C@@H](CCCN=C(N)N)C(=O)N[C@@H](CCCN=C(N)N)C(=O)N[C@@H](C)C(=O)N[C@@H](CCCN=C(N)N)C(=O)N[C@@H](CCCN=C(N)N)C(=O)N[C@@H](CCCN=C(N)N)C(=O)N[C@@H](C)C(=O)N[C@@H](C)C(=O)N[C@@H](C)C(=O)O (H-AAARKKRRARRRAAA-OH) | 0.08
C[C@H](N)C(=O)N[C@@H](C)C(=O)N[C@@H](C)C(=O)N[C@@H](C)C(=O)N[C@@H](CCCCN)C(=O)N[C@@H](CCCCN)C(=O)N[C@@H](CCCN=C(N)N)C(=O)N[C@@H](CCCN=C(N)N)C(=O)N[C@@H](C)C(=O)N[C@@H](CCCN=C(N)N)C(=O)N[C@@H](CCCN=C(N)N)C(=O)N[C@@H](CCCN=C(N)N)C(=O)N[C@@H](C)C(=O)N[C@@H](C)C(=O)N[C@@H](C)C(=O)O (H-AAAAKKRRARRRAAA-OH) | 0.17
C[C@H](N)C(=O)N[C@@H](C)C(=O)N[C@@H](C)C(=O)N[C@@H](CCCN=C(N)N)C(=O)N[C@@H](CCCCN)C(=O)N[C@@H](CCCCN)C(=O)N[C@@H](CCCN=C(N)N)C(=O)N[C@@H](CCCN=C(N)N)C(=O)N[C@@H](CCC(N)=O)C(=O)N[C@@H](CCCN=C(N)N)C(=O)N[C@@H](CCCN=C(N)N)C(=O)N[C@@H](CCCN=C(N)N)C(=O)N[C@@H](C)C(=O)N[C@@H](C)C(=O)N[C@@H](C)C(=O)O (H-AAARKKRRQRRRAAA-OH) | 0.07
